According to PubChem BioAssay AID248 (DTP/NCI, 2004):
Values joined by “and” are separate entries in the source; they are usually repeats but may differ in a detail not shown here. Equal entries are not always repeated. Toxic doses and inconclusive results are not listed. Cut-off read from the data, not from the text of the source: active = T/C of 150% or more; inactive = T/C below 125%.

Tested on: L1210 leukemia ip in BDF1 mice, survival T/C
Test: NCI In Vivo Anticancer Drug Screen. Data for tumor model L1210 Leukemia (intraperitoneal) in B6D2F1 (BDF1) mice
Conditions: endpoint: mean survival time, higher = longer survival
Outline: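 Value reflects the ratio of survival in compound-treated mice to survival in vehicle-treated controls, with both groups carrying the same transplanted tumor.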

[1] = dose: 25.0 mg/kg/injection, schedule: Q01DX009 (ip), vehicle: Klucel (hydroxypropylcellulose) (HPC)
[2] = dose: 50.0 mg/kg/injection, schedule: Q01DX009 (ip), vehicle: Klucel (hydroxypropylcellulose) (HPC)
[3] = dose: 100.0 mg/kg/injection, schedule: Q01DX009 (ip), vehicle: Klucel (hydroxypropylcellulose) (HPC)
[4] = dose: 200.0 mg/kg/injection, schedule: Q01DX009 (ip), vehicle: Klucel (hydroxypropylcellulose) (HPC)
[5] = dose: 400.0 mg/kg/injection, schedule: Q01DX009 (ip), vehicle: Klucel (hydroxypropylcellulose) (HPC)
[6] = dose: 100.0 mg/kg/injection, schedule: Q01DX009 (ip), vehicle: saline
[7] = dose: 100.0 mg/kg/injection, schedule: Q04DX003 (ip), vehicle: Klucel (hydroxypropylcellulose) (HPC)
[8] = dose: 200.0 mg/kg/injection, schedule: Q01DX009 (ip), vehicle: saline
[9] = dose: 400.0 mg/kg/injection, schedule: Q01DX009 (ip), vehicle: saline
[10] = dose: 75.0 mg/kg/injection, schedule: Q01DX001 (ip), vehicle: saline

Measured: T/C

COc1cc(Cc2cnc(NC(C)=O)nc2NC(C)=O)cc(OC)c1OC
inactive: dose: 12.5 mg/kg/injection, schedule: Q01DX009 (ip), vehicle: saline with Tween-80 92 % of control | dose: 12.5 mg/kg/injection, schedule: Q04DX003 (ip), vehicle: saline with Tween-80 101 % of control | dose: 25.0 mg/kg/injection, schedule: Q01DX009 (ip), vehicle: saline with Tween-80 95 % of control | dose: 25.0 mg/kg/injection, schedule: Q04DX003 (ip), vehicle: saline with Tween-80 101 % of control | dose: 50.0 mg/kg/injection, schedule: Q01DX009 (ip), vehicle: saline with Tween-80 88 % of control | dose: 50.0 mg/kg/injection, schedule: Q04DX003 (ip), vehicle: saline with Tween-80 95 % of control

CNC(=O)Oc1cc2ccccc2cc1C(=O)Nc1cc(OC)ccc1OC
inactive: [1] 94 % of control | [2] 101 % of control | [3] 94 % of control | [4] 95 % of control

COC12CC(COC(=O)c3cncc(Br)c3)CN(C)C1Cc1cn(C)c3cccc2c13 (stereo not given)
inactive: [3] 100 % of control | [4] 116 % of control | [5] 113 % of control

CCCCCCCCCCCCC/C=N\NC(=O)CCCC(=O)N/N=C/CCCCCCCCCCCCC
inactive: dose: 50.0 mg/kg/injection, schedule: Q01DX001 (ip), vehicle: other 93 % of control | dose: 100.0 mg/kg/injection, schedule: Q01DX001 (ip), vehicle: other 91 % of control | dose: 200.0 mg/kg/injection, schedule: Q01DX001 (ip), vehicle: other 93 % of control | dose: 400.0 mg/kg/injection, schedule: Q01DX001 (ip), vehicle: other 98 % of control

COC(=O)C(CSCSC)NC(=O)Nc1ccccc1C (stereo not given)
inactive: dose: 100.0 mg/kg/injection, schedule: Q01DX009 (ip), vehicle: saline with Tween-80 102 % of control | dose: 200.0 mg/kg/injection, schedule: Q01DX009 (ip), vehicle: saline with Tween-80 90 % of control | dose: 400.0 mg/kg/injection, schedule: Q01DX009 (ip), vehicle: saline with Tween-80 97 % of control

OC1(O)COC(c2ccccc2)OC1
inactive: [6] 96 % of control | [7] 105 % of control | [8] 102 % of control | dose: 200.0 mg/kg/injection, schedule: Q04DX003 (ip), vehicle: Klucel (hydroxypropylcellulose) (HPC) 101 % of control | [9] 93 % of control | dose: 400.0 mg/kg/injection, schedule: Q04DX003 (ip), vehicle: Klucel (hydroxypropylcellulose) (HPC) 99 % of control

CC(=O)c1coc(=O)cc1O
inactive: [1] 102 % of control | dose: 25.0 mg/kg/injection, schedule: Q04DX003 (ip), vehicle: Klucel (hydroxypropylcellulose) (HPC) 97 % of control | [2] 98 % of control | dose: 50.0 mg/kg/injection, schedule: Q04DX003 (ip), vehicle: Klucel (hydroxypropylcellulose) (HPC) 97 % of control | dose: 100.0 mg/kg/injection, schedule: Q01DX001 (ip), vehicle: Klucel (hydroxypropylcellulose) (HPC) 103 % of control | [3] 98 % of control | [7] 100 % of control

CC1CC(C(C)(C)C)CCC1S (stereo not given)
inactive: [6] 95 % of control | [8] 88 % of control

COc1cc([N+](=O)[O-])ccc1NC(=O)c1c(Br)c(Br)c(Br)c(Br)c1C(=O)O
inactive: [3] 101 % of control | [4] 106 % of control | [5] 106 % of control

CN(CCc1cnc2nc(N)nc(N)c2n1)c1ccc(C(=O)O)cc1
inactive: [10] 115 % of control

O=C(O)c1cc([N+](=O)[O-])ccc1P(=O)(O)O
inactive: [10] 93 % of control | dose: 150.0 mg/kg/injection, schedule: Q01DX001 (ip), vehicle: saline 95 % of control

Nc1ccc(C(=O)NO)cc1
inactive: dose: 62.0 mg/kg/injection, schedule: Q03HX024 (ip), vehicle: saline with Tween-80 101 % of control | [3] 98 % of control | dose: 125.0 mg/kg/injection, schedule: Q03HX024 (ip), vehicle: saline with Tween-80 97 % of control | [4] 98 % of control | dose: 200.0 mg/kg/injection, schedule: Q01DX Z (ip), vehicle: carboxymethylcellulose (CMC) 118 % of control | dose: 200.0 mg/kg/injection, schedule: Q01DX Z (ip), vehicle: saline 117 % of control and 123 % of control | dose: 300.0 mg/kg/injection, schedule: Q01DX Z (ip), vehicle: carboxymethylcellulose (CMC) 115 % of control | [5] 108 % of control | dose: 443.0 mg/kg/injection, schedule: Q01DX Z (ip), vehicle: saline 119 % of control | dose: 675.0 mg/kg/injection, schedule: Q01DX Z (ip), vehicle: saline 91 % of control | dose: 800.0 mg/kg/injection, schedule: Q01DX009 (ip), vehicle: Klucel (hydroxypropylcellulose) (HPC) 106 % of control

C/C(=C/c1ccccc1)C(=O)NN
inactive: dose: 80.0 mg/kg/injection, schedule: Q01DX001 (ip), vehicle: saline with Tween-80 98 % of control | dose: 160.0 mg/kg/injection, schedule: Q01DX001 (ip), vehicle: saline with Tween-80 106 % of control

CC(=O)c1c(C)cc(C(C)(C)C)cc1C
inactive: [6] 97 % of control | dose: 100.0 mg/kg/injection, schedule: Q04DX003 (ip), vehicle: saline 105 % of control | [8] 100 % of control | dose: 200.0 mg/kg/injection, schedule: Q04DX003 (ip), vehicle: saline 92 % of control | [9] 108 % of control | dose: 400.0 mg/kg/injection, schedule: Q04DX003 (ip), vehicle: saline 100 % of control

CC(C)(C)C1SCC(=NNc2ccc([N+](=O)[O-])cc2[N+](=O)[O-])CS1 (stereo not given)
inactive: dose: 12.5 mg/kg/injection, schedule: Q04DX002 (ip), vehicle: gum acacia 95 % of control | dose: 25.0 mg/kg/injection, schedule: Q04DX002 (ip), vehicle: gum acacia 98 % of control | dose: 50.0 mg/kg/injection, schedule: Q04DX002 (ip), vehicle: gum acacia 95 % of control

N#CCC(=O)NCCc1ccccn1
inactive: dose: 25.0 mg/kg/injection, schedule: Q04DX002 (ip), vehicle: saline with Tween-80 93 % of control | dose: 50.0 mg/kg/injection, schedule: Q04DX002 (ip), vehicle: saline with Tween-80 97 % of control | dose: 100.0 mg/kg/injection, schedule: Q04DX002 (ip), vehicle: saline with Tween-80 98 % of control and 101 % of control

COc1ccccc1N1CCN(CCCC(O)c2ccc(F)cc2)CC1 (stereo not given)
inactive: dose: 10.0 mg/kg/injection, schedule: Q04DX003 (ip), vehicle: Klucel (hydroxypropylcellulose) (HPC) 91 % of control | dose: 12.5 mg/kg/injection, schedule: Q01DX009 (ip), vehicle: Klucel (hydroxypropylcellulose) (HPC) 98 % of control | dose: 20.0 mg/kg/injection, schedule: Q04DX003 (ip), vehicle: Klucel (hydroxypropylcellulose) (HPC) 98 % of control | [1] 100 % of control | dose: 40.0 mg/kg/injection, schedule: Q04DX003 (ip), vehicle: Klucel (hydroxypropylcellulose) (HPC) 90 % of control | [2] 98 % of control

COc1ccc(COC(=O)c2cc([N+](=O)[O-])cc([N+](=O)[O-])c2)cc1
inactive: dose: 100.0 mg/kg/injection, schedule: Q01DX001 (ip), vehicle: saline with Tween-80 95 % of control | dose: 200.0 mg/kg/injection, schedule: Q01DX001 (ip), vehicle: saline with Tween-80 100 % of control | dose: 400.0 mg/kg/injection, schedule: Q01DX001 (ip), vehicle: saline with Tween-80 92 % of control
